# Literature values, collected in patent US20150157647A1, “METHODS AND CO[…] TO ACUTE RESPIRATORY DISTRESS SYNDROME” (priority 2013, published 2015).
# Key:
# [1] = system: endothelial monolayers obtained from rat lung; settings: interferes with function of adherence proteins
# [2] = system: rodent brain contusion model; settings: given 1 hour after the insult
# [3] = system: animal models of preeclampsia
Structure (SMILES),Effect on vascular permeability [1],In vitro vascular action,Effect on tissue injury [2],Effect on preeclampsia [3]
"C[C@]12CC[C@H](O)C[C@@]1(O)CC[C@@H]1[C@@H]2CC[C@]2(C)[C@@H](c3ccc(=O)oc3)C[C@H]3O[C@]132 [MBG, marinobufagenin]",causes vascular “leak”,vasoconstrictor,,
"C[C@]12CC[C@H](O)C[C@H]1CC[C@@H]1[C@@H]2CC[C@]2(C)[C@@H](c3ccc(=O)oc3)C[C@H]3O[C@]132 [RBG, epoxy-3β-hydroxy-5β-bufa-20,22-dienolide]",,,amelioration of tissue injury,prevents preeclampsia
